# Patent publication US10736933B2, “Peptide-induced NK cell activation” (priority 2015, dated 2020)
# Legend:
# Type in all cases: cell-based
# [1] = test system: NK cell line transfected with KIR2DS2; assay: DAP12 phosphorylation after KIR2DS2 immunoprecipitation (Western blot); conditions: L721.174 cells with peptide at a concentration of 2004, NK cell line with KIR2DS2 for 5 minutes
# Procedure: A. L721.174 cells were incubated with indicated peptides. The cells were then incubated with the NK cell line transfected with KIR2DS2. The cells were lysed and the KIR2DS2 was then immunoprecipitated from the mixture using the GL183 antibody coupled to protein-G beads. The immune precipitate was analysed by Western blotting using a phosphotyrosine antibody. The membrane was then stripped and reprobed with an antibody to DAP12 the molecule that transduces a positive signal from KIR2DS2. Shown are the regions on the blots at the level of DAP12 (12-15 kDa). B. L721.174 cells were incubated with indicated peptides. The cells were then incubated with the NK cell line transfected with KIR2DS2 or transfected with KIR2DL2. The cells were lysed in 1% NP-40 and then analysed by Western blotting using antibodies to pVav1 and then following stripping of the membrane to Vav1. Shown are Western blots around the 98 kDa region, and below them the corresponding densitometries for 3 independent experiments.
# With reference to FIG. 6A, 1×10^6 L721.174 cells were incubated overnight at 26° C. with indicated peptides at a concentration of 2004. […] The immune precipitate was analysed by Western blotting using a phosphotyrosine antibody. […] The cells were lysed in 1% NP-40 and then analysed by Western blotting using antibodies to pVav1 and then following stripping of the membrane to Vav1. […]
# [2] = test system: KIR2DS2-positive NK cells; assay: CD107a degranulation of NK cells from KIR2DS2-positive donors cultured with peptide-loaded L721.174 cells
# Procedure: A. cells were incubated in the presence or absence of peptides, and then cultured with NK cells from either a KIR2DS2-positive or KIR2DS2-negative donor. The level of CD107a (LAMP) expression was measured on NK cells positive for the CH-L antibody. This antibody binds to KIR2DS2, KIR2DL2 and KIR2DL3. B. Summary data from 5 KIR2DS2-positive and 6 KIR2DS2 • negative donors tested as per panel A of FIG. 2. To compare the different donors the data are normalized to 100% for the no peptide condition.
# With reference to FIG. 2A, 3×10^5 L721.174 cells were incubated at 26° C. overnight in the presence or absence of peptides, and then cultured for four hours with NK cells from either a KIR2DS2-positive or KIR2DS2-negative donor. The level of CD107a (LAMP) expression was measured on NK cells positive for the CH-L antibody. This antibody binds to KIR2DS2, KIR2DL2 and KIR2DL3. […] With reference to FIG. 2B, summary data from 5 KIR2DS2-positive and 6 KIR2DS2 • negative donors were tested as per panel A of FIG. 2. To compare the different donors the data are normalized to 100% for the no peptide condition.
# [3] = test system: KIR2DS2-positive NK cell clones; assay: Cytotoxicity of NK cell clones against peptide-loaded L721.174 cells (Live/Dead stain); conditions: KIR2DS2-positive clones 4, 6, 9 only (not KIR2DS2-negative clone 27); compared to no peptide or VAPWNSFAL
# Procedure: L721.174 cells were incubated in the presence or absence of the peptides VAPWNSFAL (SEQ ID NO: 12) and the LNPSVAATL (SEQ ID NO: 5). The cells were then labeled with the cell tracker orange dye, and then cultured with KIR2DS2-positive NK cell clones (clones 4,6,9) or a KIR2DS2-negative NK cell clone (clone 27). Cytotoxicity was then determined using Live/Dead® fixable far-red stain.
# With reference to FIG. 3, 3×10^5 L721.174 cells were incubated at 26° C. overnight in the presence or absence of the peptides VAPWNSFAL (SEQ ID NO: 12) and the LNPSVAATL (SEQ ID NO: 5). The cells were then labeled with the cell tracker orange dye, and then cultured for four hours with KIR2DS2-positive NK cell clones (clones 4,6,9) or a KIR2DS2-negative NK cell clone (clone 27). Cytotoxicity was then determined using Live/Dead® fixable far-red stain.
sequence,measurement,setting,value
LNPSVAATL [peptide recognized by KIR2DS2-positive NK cells],phosphorylation of DAP12,[1],induces phosphorylation of DAP12
same,level of CD107a (LAMP) degranulation,"[2]; KIR2DS2-positive donor, CH-L antibody positive NK cells, four hours, compared to no peptide",higher levels of degranulation
same,level of CD107a (LAMP) degranulation,"[2]; KIR2DS2-positive donors, in combination with VAPWNSFAL, compared to the VAPWNSFAL peptide alone",higher levels of degranulation
same,killing of L721.174 cell line,[3],killed the L721.174 cell line to greater extent
